What was measured:
Histamine H2 receptor = Histamine H2 receptor (Homo sapiens, UniProt P25021); assay type: functional, cell-based
[1] = molecular target: T1, Cholecystokinin receptor type A (Homo sapiens, UniProt P32238)
T1 sequence (P32238 whole entry): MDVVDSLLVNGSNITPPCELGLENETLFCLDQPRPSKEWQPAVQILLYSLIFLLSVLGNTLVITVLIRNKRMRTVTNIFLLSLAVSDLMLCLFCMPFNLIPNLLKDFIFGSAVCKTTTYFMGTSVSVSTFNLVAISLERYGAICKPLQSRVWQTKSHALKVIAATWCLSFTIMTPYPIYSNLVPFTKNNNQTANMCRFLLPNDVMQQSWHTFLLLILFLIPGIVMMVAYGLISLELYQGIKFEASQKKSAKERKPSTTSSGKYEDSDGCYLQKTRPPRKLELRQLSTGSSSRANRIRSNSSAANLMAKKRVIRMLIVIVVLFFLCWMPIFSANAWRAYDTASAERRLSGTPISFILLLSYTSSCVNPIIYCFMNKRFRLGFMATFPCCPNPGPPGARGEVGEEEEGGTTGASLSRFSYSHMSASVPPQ

D(3) dopamine receptor = D(3) dopamine receptor (Homo sapiens, UniProt P35462)
D(3) dopamine receptor, sequence (P35462 whole entry): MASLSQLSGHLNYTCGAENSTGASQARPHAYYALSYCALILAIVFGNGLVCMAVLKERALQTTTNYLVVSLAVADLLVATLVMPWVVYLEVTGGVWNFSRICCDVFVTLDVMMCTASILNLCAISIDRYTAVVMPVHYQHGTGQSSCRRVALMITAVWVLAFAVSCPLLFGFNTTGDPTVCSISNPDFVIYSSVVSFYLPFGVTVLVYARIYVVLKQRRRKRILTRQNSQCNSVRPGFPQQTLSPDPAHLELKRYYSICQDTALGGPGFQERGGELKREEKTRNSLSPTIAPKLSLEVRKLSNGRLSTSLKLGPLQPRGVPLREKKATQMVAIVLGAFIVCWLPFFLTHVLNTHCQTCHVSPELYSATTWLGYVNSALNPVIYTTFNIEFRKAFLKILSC

[2] = molecular target: T2, Muscarinic acetylcholine receptor M2 (Homo sapiens, UniProt P08172); assay type: functional, cell-based
T2 sequence (P08172 whole entry): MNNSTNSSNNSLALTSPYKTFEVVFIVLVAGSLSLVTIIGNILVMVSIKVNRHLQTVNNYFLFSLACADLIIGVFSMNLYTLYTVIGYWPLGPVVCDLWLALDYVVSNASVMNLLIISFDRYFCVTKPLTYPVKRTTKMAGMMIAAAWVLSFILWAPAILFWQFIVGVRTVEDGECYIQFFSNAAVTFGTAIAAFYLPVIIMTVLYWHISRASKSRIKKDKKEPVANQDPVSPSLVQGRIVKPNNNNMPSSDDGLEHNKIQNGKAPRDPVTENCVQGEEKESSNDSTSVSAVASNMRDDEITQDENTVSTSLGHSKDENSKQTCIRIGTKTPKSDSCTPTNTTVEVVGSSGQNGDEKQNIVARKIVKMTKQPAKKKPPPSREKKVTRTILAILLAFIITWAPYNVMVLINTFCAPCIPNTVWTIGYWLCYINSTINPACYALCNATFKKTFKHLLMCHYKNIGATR

Adenosine receptor A1 = molecular target: T3, Adenosine receptor A1 (Homo sapiens, UniProt P30542)
T3 sequence (P30542 whole entry): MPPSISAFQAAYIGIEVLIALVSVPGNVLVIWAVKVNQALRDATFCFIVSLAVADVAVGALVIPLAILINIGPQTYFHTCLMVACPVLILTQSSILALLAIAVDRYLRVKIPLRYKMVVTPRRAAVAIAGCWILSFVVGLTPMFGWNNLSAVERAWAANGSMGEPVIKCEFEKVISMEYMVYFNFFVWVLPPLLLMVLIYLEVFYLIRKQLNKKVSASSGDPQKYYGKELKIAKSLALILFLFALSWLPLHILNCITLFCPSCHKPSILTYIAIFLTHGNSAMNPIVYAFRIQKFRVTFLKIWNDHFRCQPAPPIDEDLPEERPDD

[3] = molecular target: Growth hormone secretagogue receptor type 1 (Homo sapiens, UniProt Q92847)
Growth hormone secretagogue receptor type 1, sequence (Q92847 whole entry): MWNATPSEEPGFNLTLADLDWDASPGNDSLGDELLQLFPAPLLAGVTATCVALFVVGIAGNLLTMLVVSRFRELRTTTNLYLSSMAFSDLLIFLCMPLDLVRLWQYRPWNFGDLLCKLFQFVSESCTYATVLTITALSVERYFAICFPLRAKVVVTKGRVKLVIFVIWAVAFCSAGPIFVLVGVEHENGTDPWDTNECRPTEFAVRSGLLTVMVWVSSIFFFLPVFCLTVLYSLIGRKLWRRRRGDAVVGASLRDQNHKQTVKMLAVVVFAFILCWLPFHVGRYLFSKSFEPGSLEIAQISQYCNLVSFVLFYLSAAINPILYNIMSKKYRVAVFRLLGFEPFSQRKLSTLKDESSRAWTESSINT

[4] = molecular target: Voltage-gated inwardly rectifying potassium channel KCNH2 (Homo sapiens, UniProt Q12809); assay type: functional
Voltage-gated inwardly rectifying potassium channel KCNH2, sequence (Q12809 whole entry): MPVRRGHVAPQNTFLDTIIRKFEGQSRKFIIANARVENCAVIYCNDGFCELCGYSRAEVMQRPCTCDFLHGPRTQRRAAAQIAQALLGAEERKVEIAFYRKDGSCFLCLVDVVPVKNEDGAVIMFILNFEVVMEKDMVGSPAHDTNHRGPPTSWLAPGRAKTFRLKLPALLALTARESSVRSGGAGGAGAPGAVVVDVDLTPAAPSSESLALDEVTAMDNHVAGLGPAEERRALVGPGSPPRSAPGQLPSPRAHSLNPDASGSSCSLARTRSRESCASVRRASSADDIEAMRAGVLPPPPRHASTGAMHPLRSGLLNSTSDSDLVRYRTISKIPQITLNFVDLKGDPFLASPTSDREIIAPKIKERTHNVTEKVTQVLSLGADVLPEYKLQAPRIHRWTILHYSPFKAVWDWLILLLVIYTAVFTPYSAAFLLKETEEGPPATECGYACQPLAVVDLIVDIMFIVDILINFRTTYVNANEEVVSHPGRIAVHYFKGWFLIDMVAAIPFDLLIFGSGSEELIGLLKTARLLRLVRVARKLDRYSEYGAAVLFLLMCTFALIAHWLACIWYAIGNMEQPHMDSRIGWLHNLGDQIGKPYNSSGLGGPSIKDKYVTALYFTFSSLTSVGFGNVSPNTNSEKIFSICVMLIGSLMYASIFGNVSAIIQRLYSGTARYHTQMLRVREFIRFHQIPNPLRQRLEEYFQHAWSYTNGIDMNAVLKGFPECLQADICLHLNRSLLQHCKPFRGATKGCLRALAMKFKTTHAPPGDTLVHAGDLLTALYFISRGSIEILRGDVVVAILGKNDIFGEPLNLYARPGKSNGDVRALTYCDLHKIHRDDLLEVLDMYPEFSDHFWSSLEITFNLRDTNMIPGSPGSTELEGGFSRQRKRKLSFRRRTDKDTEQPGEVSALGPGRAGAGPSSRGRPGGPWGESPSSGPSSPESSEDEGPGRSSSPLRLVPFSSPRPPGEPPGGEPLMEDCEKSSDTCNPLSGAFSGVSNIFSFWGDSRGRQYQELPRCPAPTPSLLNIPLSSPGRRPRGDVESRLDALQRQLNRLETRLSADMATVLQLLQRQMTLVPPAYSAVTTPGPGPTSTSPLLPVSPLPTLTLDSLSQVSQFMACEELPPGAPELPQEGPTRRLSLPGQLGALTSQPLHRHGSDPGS

[5] = molecular target: T4, Equilibrative nucleoside transporter 1 (Homo sapiens, UniProt Q99808)
T4 sequence (Q99808 whole entry): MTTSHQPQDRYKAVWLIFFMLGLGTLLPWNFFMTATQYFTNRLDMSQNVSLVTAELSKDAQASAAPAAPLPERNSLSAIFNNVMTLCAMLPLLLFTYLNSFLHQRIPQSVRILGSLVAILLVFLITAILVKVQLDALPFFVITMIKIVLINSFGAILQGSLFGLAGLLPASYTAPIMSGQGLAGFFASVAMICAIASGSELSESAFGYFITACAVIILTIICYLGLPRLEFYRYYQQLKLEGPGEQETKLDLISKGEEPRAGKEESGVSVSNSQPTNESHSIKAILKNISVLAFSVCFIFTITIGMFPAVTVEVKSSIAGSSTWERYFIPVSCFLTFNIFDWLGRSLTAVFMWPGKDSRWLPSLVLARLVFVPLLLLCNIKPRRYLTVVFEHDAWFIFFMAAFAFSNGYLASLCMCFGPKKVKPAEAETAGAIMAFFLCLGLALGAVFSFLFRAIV

B2 bradykinin receptor = molecular target: T5, B2 bradykinin receptor (Homo sapiens, UniProt P30411)
T5 sequence (P30411 whole entry): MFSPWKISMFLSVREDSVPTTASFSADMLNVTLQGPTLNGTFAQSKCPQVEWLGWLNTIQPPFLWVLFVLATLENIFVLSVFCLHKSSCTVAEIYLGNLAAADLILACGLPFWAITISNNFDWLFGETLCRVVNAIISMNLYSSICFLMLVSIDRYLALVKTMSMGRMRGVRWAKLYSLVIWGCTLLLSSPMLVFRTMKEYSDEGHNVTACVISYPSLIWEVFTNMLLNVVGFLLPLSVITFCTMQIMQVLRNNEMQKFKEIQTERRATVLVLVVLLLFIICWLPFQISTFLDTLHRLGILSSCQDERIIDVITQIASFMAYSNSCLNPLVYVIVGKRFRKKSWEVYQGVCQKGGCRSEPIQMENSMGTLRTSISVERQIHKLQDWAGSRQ

Thromboxane A2 receptor = molecular target: T6, Thromboxane A2 receptor (Homo sapiens, UniProt P21731)
T6 sequence (P21731 whole entry): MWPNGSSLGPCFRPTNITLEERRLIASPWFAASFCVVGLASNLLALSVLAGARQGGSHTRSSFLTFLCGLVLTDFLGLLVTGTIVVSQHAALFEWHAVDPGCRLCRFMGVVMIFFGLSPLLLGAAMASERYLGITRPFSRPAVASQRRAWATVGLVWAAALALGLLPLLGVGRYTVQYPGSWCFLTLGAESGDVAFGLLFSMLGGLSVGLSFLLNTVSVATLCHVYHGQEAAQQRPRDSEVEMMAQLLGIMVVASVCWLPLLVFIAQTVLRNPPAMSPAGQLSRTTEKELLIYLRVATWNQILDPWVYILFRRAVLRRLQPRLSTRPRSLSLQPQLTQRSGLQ

Melanocortin receptor 3 = Melanocortin receptor 3 (Homo sapiens, UniProt P41968)
Melanocortin receptor 3, sequence (P41968 whole entry): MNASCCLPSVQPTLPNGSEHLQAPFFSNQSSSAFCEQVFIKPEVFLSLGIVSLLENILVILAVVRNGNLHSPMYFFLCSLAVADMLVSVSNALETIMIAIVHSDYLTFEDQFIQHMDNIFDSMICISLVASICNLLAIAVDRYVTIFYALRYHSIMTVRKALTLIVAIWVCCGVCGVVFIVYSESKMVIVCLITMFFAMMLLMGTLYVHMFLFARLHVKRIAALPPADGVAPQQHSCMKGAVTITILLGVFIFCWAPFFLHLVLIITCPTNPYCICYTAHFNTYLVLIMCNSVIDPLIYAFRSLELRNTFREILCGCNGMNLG
Note: assay procedure not described here.

Histamine H2 receptor, sequence (P25021 whole entry): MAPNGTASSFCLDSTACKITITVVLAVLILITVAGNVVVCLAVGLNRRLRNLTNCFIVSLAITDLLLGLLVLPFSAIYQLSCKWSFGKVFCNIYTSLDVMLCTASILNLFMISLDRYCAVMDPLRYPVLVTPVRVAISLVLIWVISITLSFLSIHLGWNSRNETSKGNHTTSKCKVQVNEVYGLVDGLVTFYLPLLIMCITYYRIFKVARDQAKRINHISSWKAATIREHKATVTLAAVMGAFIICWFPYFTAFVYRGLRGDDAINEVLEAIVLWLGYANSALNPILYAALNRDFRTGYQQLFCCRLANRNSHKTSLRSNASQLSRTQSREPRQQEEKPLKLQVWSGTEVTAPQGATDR

| Compound | AC50 (Histamine H2 receptor) [µM] | AC50 [1] [µM] | AC50 (D(3) dopamine receptor) [µM] | AC50 [2] [µM] | AC50 (Adenosine receptor A1) [µM] | AC50 [3] [µM] | AC50 [4] [µM] | AC50 [5] [µM] | AC50 (B2 bradykinin receptor) [µM] | AC50 (Thromboxane A2 receptor) [µM] | AC50 (Melanocortin receptor 3) [µM] |
| --- | --- | --- | --- | --- | --- | --- | --- | --- | --- | --- | --- |
| CC12CC3CC(C)(C1)CC(N)(C3)C2 [MEMANTINE] | > 10 | > 30 | > 30 | > 10 | > 30 | > 30 | > 30 | > 30 | > 30 | > 30 | > 30 |
| CCOC(=O)C1=C(C)NC(C)=C(C(=O)OC)C1c1cccc([N+](=O)[O-])c1 (stereo not drawn) [NITRENDIPINE] | > 10 | > 30 | > 30 | > 10 | > 30 | > 30 | > 30 | 15.9 | > 30 | > 30 | > 30 |
| C#C[C@]1(OC(C)=O)CC[C@H]2[C@@H]3CCC4=C/C(=N/O)CC[C@@H]4[C@H]3CC[C@@]21CC [NORGESTIMATE] | > 30 | > 30 | 29 | > 30 | > 30 | > 30 | > 30 | > 30 | > 30 | > 30 | > 30 |
| [H]/N=C(/N)N/C(=N/[H])NCCc1ccccc1 [PHENFORMIN] | > 30 | > 30 | > 30 | > 10 | > 30 | > 30 | > 30 | > 30 | > 30 | > 30 | > 30 |
| CCCCC1C(=O)N(c2ccccc2)N(c2ccccc2)C1=O [PHENYLBUTAZONE] | > 10 | > 30 | > 30 | > 10 | > 30 | > 30 | > 30 | > 30 | > 30 | > 30 | > 30 |
| CC(N)C(O)c1ccccc1 (stereo not drawn) [PHENYLPROPANOLAMINE] | > 10 | > 30 | > 10 | > 10 | > 30 | > 30 | > 30 | > 30 | > 30 | > 30 | > 30 |
| Clc1ccc2c(N3CCN(CCCN4CCN(c5ccnc6cc(Cl)ccc56)CC4)CC3)ccnc2c1 [PIPERAQUINE] | > 30 | > 30 | 9 | > 30 | > 30 | > 30 | 2.56 | > 30 | > 30 | > 30 | > 30 |
| Cc1noc(NS(=O)(=O)c2ccc(N)cc2)c1C [SULFISOXAZOLE] | > 10 | > 10 | > 30 | > 10 | > 10 | > 10 | > 30 | > 10 | > 10 | > 10 | > 10 |
| CC1(C)S[C@@H]2[C@H](NC(=O)[C@H](N)c3ccccc3)C(=O)N2[C@H]1C(=O)OCOC(=O)[C@@H]1N2C(=O)C[C@H]2S(=O)(=O)C1(C)C [SULTAMICILLIN] | > 30 | > 30 | > 30 | > 30 | > 30 | > 30 | > 30 | > 30 | > 30 | > 30 | > 30 |
| CCC(=O)O[C@H]1CC[C@H]2[C@@H]3CCC4=CC(=O)CC[C@]4(C)[C@H]3CC[C@]12C [TESTOSTERONE PROPIONATE] | > 10 | > 10 | > 30 | > 10 | > 10 | > 10 | > 30 | > 10 | > 10 | > 10 | > 10 |
| Cc1cc2cc3c(C)cc(=O)oc3c(C)c2o1 [TRIOXSALEN] | > 10 | > 10 | > 30 | > 10 | > 30 | > 10 | > 30 | > 10 | > 10 | > 10 | > 10 |
| CC(C)[C@H](N)C(=O)OCC(CO)OCn1cnc2c(=O)nc(N)[nH]c21 (stereo partly drawn) [VALGANCICLOVIR] | > 30 | > 30 | > 30 | > 30 | > 30 | > 30 | > 30 | > 30 | > 30 | > 30 | > 30 |
| CCCC(CCC)C(N)=O [VALPROMIDE] | > 10 | > 30 | > 30 | > 10 | > 30 | > 30 | > 30 | > 30 | > 30 | > 30 | > 30 |
